For series [1], the system named is keratinocytes on de-epidermized dermis (DED). The experiment in a line: TEWL (transepidermal water loss) on organotypic epidermis cultures. The class given is cell-based, human. To be noted: topical treatment 20 minutes, washed, reading after 24 hours; higher value = worse. The text has this: TEWL (transepidermal water loss) is a common clinical measure used to compare the mildness of surfactant-based formulations for skin (Rogiers 2001; Berardesca and Maibach 1990; Brink et al. 2019; O'Connor, Ogle, and Odio 2016; Thune et al. 1988). TEWL is considered to provide a relative understanding of individual skin barrier quality in relation to onset of disease, environmental impacts and exposure to topical formulations, such as consumer products (Alexander et al. 2018). […]
De-epithelialized dermis (DED) was prepared by removing fat from the skin sample with a scalpel, cutting the skin into squares measuring 1.25 cm^2, and placing the samples in 1M NaCl plus 10× penicillin/streptomycin. […] The following day, the epidermis was carefully peeled off with forceps and dermal tissue was stored in phosphate-buffered saline (PBS) plus 2× penicillin/streptomycin at 4° C. until ready for use. […]
At day 7 at the air-liquid interface, the cultures were treated topically with full or diluted formulas by cotton swab or by pipetting 6-50 ul, depending on product viscosity. […] Once equilibrated the cultures were placed on the lid of a sterile 150 mm petri dish and TEWL readings were taken using a Delfin Vapometer containing a silicone O-ring adaptor provided by the manufacturer. […]

Series [2] can be described thus: Syringe filter polymer cleaning procedure (syringe method). Conditions: Table 4; controls; Decyl Glucoside 2% starting active before dilution. As to the method: Procedure for Syringe Filter Polymer Cleaning
1) materials used in syringe cleaning procedure: • A. 0.15% Oil Red 0 dyed >95% pure Glyceryl Trioleate oil (See below—Procedure for preparing 0.15% Oil Red 0 dyed Triolein oil (Glyceryl trioleate)) • B. Syringe Filters: 30 mm, 5 um Nylon syringe filters; (Thermo Fischer Scientific Co, Waltham, Mass.: Part #F2500-50) • C. 24 ml Norm-ject luer (slip tip) syringes Ref #4200-00V0 (These are silicone free syringes) • D. Isopropanol (IPA) • E. Polymer Solutions/mixtures—diluted with distilled water to the desired percentage (typically 0.5% for a polymer only solution and 10% for a full formulation unless otherwise noted in the examples). • F. Plastic drain tubing having a diameter to fit over the slip tip of the syringe filter tightly
Syringe Pump Settings • Syringe Diameter: 20 mm (Note: The volume of liquid dispensed by the syringe is based on the diameter of the syringe and diameter setting must be changed if using different sizes of syringes). • Dispensing Volume set point: 5 mls • Cleaning Dispensing Rate: 5 mls/min • IPA Extraction Rate: 2.5 ml/min
• 1. Coat the slip tip side of the syringe filter (see FIG. 5) using a micro pipettor with 48-50 mg of Oil 0 Red dyed Triolein oil by setting the micro-pipettor to a volume of ˜58 ul to compensate for the lower density of the dyed oil. • 2. Slowly fill the pipette tip with oil. […]

Turning to `CCCCCCCCCCCCOS(=O)(=O)[O-].[Na+]` [SLS (10%)], in series [1], the “TEWL Mean” value is 26.03. Turning to `CCCCCCCCCCO[C@@H]1O[C@H](CO)[C@@H](O)[C@H](O)[C@H]1O` [Sample C3, Decyl Glucoside], the “% Sebum Removed with Syringe Method” value in series [2] was 51%.

The values are drawn from patent publication US20220133618A1, “Low Surfactant Personal Care Compositions” (The Procter & Gamble Company, priority 2020, published 2022).
